Legend:
Format in all cases: functional, cell-based
HL-60 = assay: Cytotoxicity against human HL60 cells after 72 hrs by MTT assay; conditions: HL-60, 72 h
SMMC-7721 = assay: Cytotoxicity against human SMMC7721 cells after 72 hrs by MTT assay; conditions: SMMC-7721, 72 h
A549 = assay: Cytotoxicity against human A549 cells after 72 hrs by MTT assay; conditions: A549, 72 h
MCF7 = assay: Cytotoxicity against human MCF7 cells after 72 hrs by MTT assay; conditions: MCF7, 72 h
SW480 = assay: Cytotoxicity against human SW480 cells after 72 hrs by MTT assay; conditions: SW480, 72 h

Question: Which IC50 (HL-60) does the source give for `CC(=O)O[C@H]1C[C@@H](OC(C)=O)[C@@]2(C)CO[C@H]3[C@@H](O)[C@]4(C)[C@H](CC[C@@]5(C)[C@H](c6ccoc6)OC(=O)[C@@H]6O[C@]645)[C@]1(C)[C@@H]32` [CIPADESIN J] here?
Answer: Its IC50 is greater than 40 µM.

Question: What about the IC50 (SMMC-7721) of the same compound?
Answer: The IC50 was 20.4 µM.

Question: And the IC50 (A549)?
Answer: Its IC50 is greater than 40 µM.

Question: And the IC50 (MCF7)?
Answer: The IC50 was greater than 40 µM.

Question: And the IC50 (SW480)?
Answer: The IC50 was 20.2 µM.

Question: `CCC(C)C(=O)O[C@@H]1[C@@H]2OC[C@]3(C)[C@H](OC(C)=O)C[C@H](OC(C)=O)[C@](C)([C@H]4CC[C@@]5(C)[C@H](c6ccoc6)OC(=O)[C@@H]6O[C@@]65[C@]14C)[C@@H]23` (stereo not given in full) [CIPADESIN K] was tested. Which IC50 (HL-60) did it give?
Answer: Its IC50 is greater than 40 µM.

Question: And the IC50 (SMMC-7721)?
Answer: Its IC50 is greater than 40 µM.

Question: And the IC50 (A549)?
Answer: Its IC50 is greater than 40 µM.

Question: What about the IC50 (MCF7) of the same compound?
Answer: The IC50 was greater than 40 µM.

Question: And the IC50 (SW480)?
Answer: Its IC50 is 36.6 µM.

Question: What does the source list for `CCC(C)C(=O)O[C@@H]1[C@@H]2OC[C@]3(C)[C@H](OC(C)=O)C[C@H](OC(C)=O)[C@@](C)([C@@H]23)[C@H]2CC[C@]3(C)C(=CC(=O)[C@H]3c3ccoc3)[C@]12C` (stereo not given in full) [CIPADESIN L]?
Answer: IC50 (HL-60): > 40 µM; IC50 (SMMC-7721): > 40 µM; IC50 (A549): > 40 µM; IC50 (MCF7): > 40 µM; IC50 (SW480): > 40 µM

Question: `CCC(C)C(=O)O[C@@H]1[C@@H]2OC[C@]3(C)[C@H](OC(C)=O)C[C@H](OC(C)=O)[C@](C)([C@H]4CC[C@@]5(C)[C@H](c6ccoc6)C(=O)[C@@H]6O[C@@]65[C@]14C)[C@@H]23` (stereo not given in full) [CIPADESIN M] was tested. Which IC50 (HL-60) did it give?
Answer: The IC50 was greater than 40 µM.

Question: And the IC50 (SMMC-7721)?
Answer: The IC50 was greater than 40 µM.

Question: What about the IC50 (A549) of the same compound?
Answer: The IC50 was greater than 40 µM.

Question: And the IC50 (MCF7)?
Answer: Its IC50 is greater than 40 µM.

Question: What about the IC50 (SW480) of the same compound?
Answer: The IC50 was greater than 40 µM.

Question: How did the IC50 (HL-60) turn out when `CCC(C)C(=O)O[C@H]1C(C)(C)[C@H](CC(=O)OC)[C@]2(C)C(=O)[C@@]1(O)CC1=C3CC(=O)O[C@@H](c4ccoc4)[C@]3(C)CC[C@@H]12` (stereo not given in full) [CIPADESIN N] was run?
Answer: Its IC50 is greater than 40 µM.

Question: And the IC50 (SMMC-7721)?
Answer: Its IC50 is greater than 40 µM.

Question: And the IC50 (A549)?
Answer: The IC50 was greater than 40 µM.

Question: What about the IC50 (MCF7) of the same compound?
Answer: The IC50 was greater than 40 µM.

Question: And the IC50 (SW480)?
Answer: Its IC50 is greater than 40 µM.

Question: With `CCC(C)C(=O)O[C@@H]1[C@H]2C(=O)[C@](C)(C3=CC[C@]4(C)[C@@H](CC(=O)O[C@H]4c4ccoc4)[C@]34O[C@H]24)[C@@H](CC(=O)OC)C1(C)C` (stereo not given in full) [CIPADESIN O] as the compound, how does the IC50 (HL-60) read?
Answer: The IC50 was greater than 40 µM.

Question: What about the IC50 (SMMC-7721) of the same compound?
Answer: The IC50 was greater than 40 µM.

Question: What about the IC50 (A549) of the same compound?
Answer: The IC50 was greater than 40 µM.

Question: And the IC50 (MCF7)?
Answer: The IC50 was greater than 40 µM.

Question: And the IC50 (SW480)?
Answer: Its IC50 is greater than 40 µM.

Question: For `C=C1[C@]2(O)C(=O)C[C@@]3(C)[C@H](c4ccoc4)OC(=O)C[C@]13O[C@H]1[C@@H](OC(C)=O)[C@@H](OC(C)=O)C(C)(C)[C@H](CC(=O)OC)[C@]12C` [CIPADESIN P], which IC50 (HL-60) is on record?
Answer: The IC50 was greater than 40 µM.

Question: What about the IC50 (SMMC-7721) of the same compound?
Answer: Its IC50 is greater than 40 µM.

Question: What about the IC50 (A549) of the same compound?
Answer: The IC50 was greater than 40 µM.

Question: What about the IC50 (MCF7) of the same compound?
Answer: Its IC50 is greater than 40 µM.

Question: And the IC50 (SW480)?
Answer: Its IC50 is greater than 40 µM.

Question: How did the IC50 (HL-60) turn out when `C=C1[C@]2(O)CC[C@@]3(C)[C@H](c4ccoc4)OC(=O)C[C@]13O[C@H]1C[C@@H](OC(C)=O)C(C)(C)[C@H](CC(=O)OC)[C@]12C` [CIPADESIN Q] was run?
Answer: Its IC50 is greater than 40 µM.

Question: And the IC50 (SMMC-7721)?
Answer: The IC50 was greater than 40 µM.

Question: What about the IC50 (A549) of the same compound?
Answer: Its IC50 is greater than 40 µM.

Question: What about the IC50 (MCF7) of the same compound?
Answer: Its IC50 is greater than 40 µM.

Question: And the IC50 (SW480)?
Answer: The IC50 was greater than 40 µM.

From ChEMBL document CHEMBL1212883, “Limonoids from the leaves of Cipadessa baccifera” (J Nat Prod, 2010)
